Measurements as given in publication PMC6763016 (PLoS ONE, 2019).

Molecular target: T1, 5-HT1A autoreceptor (5-HT1AAR) of Tph2-/- mouse dorsal raphe serotonergic neurons (Mus musculus, UniProt Q64264)
T1 construct: gene Htr1a
T1 sequence (Q64264 1-421): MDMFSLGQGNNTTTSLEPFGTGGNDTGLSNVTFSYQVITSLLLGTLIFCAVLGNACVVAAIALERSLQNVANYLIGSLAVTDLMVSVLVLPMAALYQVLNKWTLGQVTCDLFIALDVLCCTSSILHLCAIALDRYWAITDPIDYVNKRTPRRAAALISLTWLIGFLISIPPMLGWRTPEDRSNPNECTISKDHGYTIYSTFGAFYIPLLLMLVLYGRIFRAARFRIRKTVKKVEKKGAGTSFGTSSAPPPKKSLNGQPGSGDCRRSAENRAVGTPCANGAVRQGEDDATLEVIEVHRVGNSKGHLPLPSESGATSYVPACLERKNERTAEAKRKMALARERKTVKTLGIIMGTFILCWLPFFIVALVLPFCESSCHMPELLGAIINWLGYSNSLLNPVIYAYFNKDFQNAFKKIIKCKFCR
Settings: agonist; 10 μM phenylephrine and synaptic blockers present; 34-36 °C; four of nine neurons (those silenced by 1 μM)

% decrease of firing at 1 μM: 96.1 ± 7.3%
SMILES: O=c1n(CCCN2CCN(c3cccc(Cl)c3)CC2)nc2ccccn12 [Trazodone]
